Source: PubChem BioAssay (NCI)
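Five concentrations, 48 hours, 96-well plates. Abbreviation: GI50, concentration required for 50% inhibition of growth. TGI: concentration producing complete growth inhibition.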

How the values were obtained:
Assay in all cases: NCI-60 cell line screen, 48 h
[1] = system: 786-0 renal
[2] = system: HOP-62 NSCLC
[3] = system: HCT-116 colon
[4] = system: HL-60(TB) leukemia
[5] = system: KM12 colon
[6] = system: EKVX NSCLC
[7] = system: NCI-H23 lung
[8] = system: OVCAR-4 ovarian
[9] = system: CAKI-1 renal
[10] = system: MDA-MB-231 breast

SMILES | TGI [1] | TGI [2] | TGI [3] | TGI [4] | TGI [5] | TGI [6] | TGI [7] | TGI [8] | TGI [9] | GI50 [9] | GI50 [10] | TGI [10] | GI50 [1] | GI50 [2] | GI50 [3] | GI50 [4] | GI50 [5] | GI50 [7] | GI50 [8]
O=C1C=CC2(CCC23C=CC(=O)O3)O1 (centres undefined) | > 100 µM | > 100 µM | > 100 µM | > 100 µM | > 100 µM | > 100 µM | > 100 µM | > 100 µM | – | – | – | – | – | – | – | – | – | – | –
C#Cc1cccc(NC(=O)/C=C\C(=O)O)c1 | > 100 µM | – | > 100 µM | > 100 µM | > 100 µM | > 100 µM | > 100 µM | > 100 µM | > 100 µM | – | – | – | – | – | – | – | – | – | –
CC(C)c1ccc(Cc2ccc(C(C)C)c(NC(=O)C(=O)Cc3cnc4ccccc4n3)c2C(C)C)c(C(C)C)c1NC(=O)C(=O)Cc1cnc2ccccc2n1 | > 100 µM | > 100 µM | > 100 µM | > 100 µM | > 100 µM | > 100 µM | – | > 100 µM | > 100 µM | – | – | – | – | – | – | – | – | – | –
CCOC(=O)c1cn(C)c2c(OC)c3ccccc3c(OC)c2c1=O | > 100 µM | 82.7 µM | 38.5 µM | > 100 µM | 48.3 µM | – | 37.8 µM | > 100 µM | 76.8 µM | 29.7 µM | 32.6 µM | > 100 µM | > 100 µM | 33.3 µM | 19.6 µM | 35.9 µM | 19.7 µM | 16.1 µM | 42.1 µM
C=C1C(=O)O[C@@H]2C[C@@]3(C)[C@H](O)CCC(=C)[C@@H]3C[C@H]12 | 21.6 µM | 34 µM | 18.5 µM | – | 14.4 µM | 29.7 µM | 25.5 µM | 26.7 µM | 19.6 µM | – | – | – | – | – | – | – | – | – | –
CCOC(=O)C1=C(C)N(NC(N)=O)C2(N)N(NC(N)=O)C(C)=C(C(=O)OCC)C12C#N (centres undefined) | > 100 µM | > 100 µM | > 100 µM | – | > 100 µM | > 100 µM | – | > 100 µM | > 100 µM | – | – | – | – | – | – | – | – | – | –
CCOC(=O)C[C@@]12CCCN[C@]1(C)CCc1ccccc12 | > 100 µM | > 100 µM | > 100 µM | > 100 µM | > 100 µM | > 100 µM | > 100 µM | > 100 µM | > 100 µM | – | – | – | – | – | – | – | – | – | –
CC(C)(C)C1=NO[C@H]2[C@@H](NC(=O)c3ccccc3)CC[C@@H]12 | > 100 µM | > 100 µM | > 100 µM | > 100 µM | > 100 µM | – | > 100 µM | > 100 µM | > 100 µM | – | – | – | – | – | – | – | – | – | –
N#CC(C(=O)Nc1ccccc1)C1=C(Cl)C(=O)c2ccccc2C1=O (centres undefined) | 27.7 µM | 33.6 µM | 27.3 µM | 20.5 µM | 50.7 µM | 35.1 µM | 36.5 µM | 31 µM | 41.2 µM | – | – | – | – | – | – | – | – | – | –
Cc1ccc(-n2c3nc(=O)n(C)c(=O)c-3nc3ccccc32)c(C)c1 | 42.1 µM | > 100 µM | 24 µM | 29.2 µM | 26.5 µM | 21.6 µM | 7.75 µM | 24.6 µM | 57.7 µM | – | – | – | – | – | – | – | – | – | –
CC(C)(C)OC(=O)N[C@H]1CC(=O)c2ccccc2N(CC(=O)O)C1=O | > 100 µM | > 100 µM | 75 µM | > 100 µM | > 100 µM | > 100 µM | > 100 µM | > 100 µM | > 100 µM | – | – | – | – | – | – | – | – | – | –
O=C(Nc1ccccc1C(=O)NC(=O)c1ccccc1NC(=O)c1ccccc1)c1ccccc1 | 29.3 µM | 36.4 µM | 13.5 µM | – | 3.17 µM | 28.3 µM | 17.1 µM | 18 µM | 29.1 µM | – | – | – | – | – | – | – | – | – | –
